Data as given in patent USRE41226E1, “Compounds having reversible inhibiting activity of carnitine palmitoyl-transferase” (Sigma-Tau Industrie Farmaceutiche Riunite S.p.A., priority 1998, dated 2010).
Values belong to the compound of their own block, whether it stands above or below them.

Tests used:
[1] = tested on: β-hydroxybutyrate production in rat hepatocytes; assay: Oleate-stimulated β-hydroxybutyrate production in rat hepatocytes; assay type: cell-based; details: 40 min incubation, then oleate 1 mM for 20 min, mean of three experiments, read-out: IC50 of inhibition CPTI curve of β-hydroxybutyrate production in rat hepatocytes
Method: β-hydroxybutyrate production is an index of CPT activity. In fact, the production of ketone bodies, final products of mitochrondrial β-oxidation, is related to CPT activity.
Mitocondrial preparations, obtained according to the method by Venerando et al. (Am. J. Physiol. 266:C455-C461, 1994), were used. Hepatocytes are incubated at 37° C. in KRB bicarbonate buffer at pH 7.4, 6 mM glucose, 1% BSA in O2/CO2 95/5 atmosphere at 2.5×10^6 cells/ml. After 40 min incubation with the test compound at different concentrations, the first set of samples was taken (T0 min) and oleate was added (1 mM final in KRB+BSA 1.4%). After 20 minutes, the second withdrawal was made (T20 min)
The data are the mean of three different experiments, twice carried out.

24 hours-starved rats = assay: Glucose and β-hydroxybutyrate in serum of fasted rats treated with CPT inhibitors; assay type: in vivo, Fischer rats; details: one hour after intraperitoneal treatment, ST1326 14.5 mg/2 ml/kg, others equivalent dose
Method: Normally fed Fischer rats were starved for 24 hours and subsequently treated with the test compounds. One hour after the treatment, the animals were sacrificed and serum concentrations of glucose and β-hydroxybutyrate were determined.
For the compound ST1326 were used doses of 14.5 mg/2 ml/kg, for other test compounds, the doses are equivalent to ST1326 one.

CPTI = biological target: T1, CPTI (Rattus norvegicus, UniProt P32198); assay: Determination of CPT inhibiting activity in rat liver mitochondria; assay type: biochemical, Fischer rat; details: 50 μM [14C] palmitoyl-CoA, 10 mM L-carnitine, 37° C., 1 minute, read-out: IC50 of inhibition CPTI curve in rat liver mitochondria
T1 construct: Mitochondria were isolated from liver or heart and suspended in 75 mM saccharose buffer; from tissue; host or cells: liver mitochondria of normally fed Fischer rats
T1 sequence (P32198 1-773): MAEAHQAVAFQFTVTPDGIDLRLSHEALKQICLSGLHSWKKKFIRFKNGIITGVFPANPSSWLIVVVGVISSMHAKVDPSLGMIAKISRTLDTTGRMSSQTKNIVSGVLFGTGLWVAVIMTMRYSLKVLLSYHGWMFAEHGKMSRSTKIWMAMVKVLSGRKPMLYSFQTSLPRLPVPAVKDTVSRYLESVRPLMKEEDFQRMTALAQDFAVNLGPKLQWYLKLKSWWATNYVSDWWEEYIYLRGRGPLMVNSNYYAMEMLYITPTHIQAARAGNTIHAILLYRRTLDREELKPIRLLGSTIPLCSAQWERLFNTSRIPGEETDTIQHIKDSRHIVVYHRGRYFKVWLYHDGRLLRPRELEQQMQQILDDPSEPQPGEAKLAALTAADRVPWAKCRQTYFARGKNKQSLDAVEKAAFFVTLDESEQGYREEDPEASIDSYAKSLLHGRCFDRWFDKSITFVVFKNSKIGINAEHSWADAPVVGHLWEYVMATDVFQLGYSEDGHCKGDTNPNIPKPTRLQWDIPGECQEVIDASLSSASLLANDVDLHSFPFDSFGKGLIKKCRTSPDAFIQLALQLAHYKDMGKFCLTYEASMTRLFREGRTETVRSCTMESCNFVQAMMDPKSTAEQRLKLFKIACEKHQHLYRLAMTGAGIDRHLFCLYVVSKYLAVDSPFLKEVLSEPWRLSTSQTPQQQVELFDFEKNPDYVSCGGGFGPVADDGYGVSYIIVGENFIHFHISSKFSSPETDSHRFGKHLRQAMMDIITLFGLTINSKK
Method: CPT inhibition was evaluated essentially as described in Kerner, J. & Bieber, L. L. (1990) Biochemistry 29: 4326-34 on fresh mitochrondrial preparation obtained from normally fed Fischer rat liver or heart. Mitochondria were isolated from liver or heart and suspended in 75 mM saccharose buffer, 1 mM EGTA, pH 7.5. 100 μl mitochrondrial suspension, containing 50 μM [^14C] palmitoyl-CoA (specific activity […]) and 10 mM L-carnitine, were incubated at 37° C., in the presence of scalar concentrations of the test product (0-3 mM). Reaction time: 1 minute.

fed with high-fat diet = assay: Glucose and insulin levels in diabetic animals (high-fat diet) treated with CPT inhibitors; assay type: in vivo, C57BL/6J male rats; details: 45 mg/Kg p.o. twice a day, after 20 days of treatment
Method: C57BL/6J male […], 5-weeks old, were provided by Ch. River. After 10 days of acclimatisation in standard conditions (22±2° C.; 55±15% humidity; 15-20/h air changes; 12 hours light-dark cycle, with 700-1900 lux) and with standard diet with 4RF21 feedstock (Mucedola), glycaemia was controlled in post-absorption state (starving from 8.30 a.m. to 4.30 p.m.). Blood withdrawal was carried out cutting the tail end. Glucose was analyzed in blood acid supernatant (HCLO4 0,375 N) with autoanalyzer Cobas Mira S with Glucose GDH Kit (Roche).
The animals were divided in two groups, 26 mice each and fed with a high-fat and a low-fat diet, respectively.
After 2 months from the start of the diet, glycaemia was tested, according to the starrting method. After about 3 months from the start of the diet, glycaemia was tested, according to the starting method and plasma insulin levels were also determined (with blood withdrawal from end tail cutting) using [125I] Rat Insulin Kit (Amersham).
One 10 mice group fed with low-fat diet and two 10-mice groups fed with the high-fat diet were selected. One of the two high fat diet was administered with ST 1327 at the dose of 45 mg/Kg in deionised H2O (p.o., twice a day, 8.30 a.m. and 5.30 p.m.).administration volume was 10 ml/Kg, the two remaining groups were treated with vehicle only. High-fat or low-fat diets were continued during the treatment.
After 20 days of treatment, glycaemia and plasma insulin were measured. After 43 days of treatment, the animals were sacrificed by decapitation in post-absorption state (fasting 8.30 a.m.-4.30 p.m.), 8 hours after the last treatment. Blood was withdrawn and serum was separated by centrifugation and stored at −80° C. Liver, heart and skeletal muscle (upper limbs) were also extracted, frozen in dry ice-acetone and kept at −80° C.

[2] = tested on: hearts perfused according to Langendorff technique; assay: Myocardial ischemia: LDH release from Langendorff-perfused rat hearts (ischemia/reperfusion); set-up: species or system male Wistar rats
Method: To this end, male Wistar rats, weighing 200-225 g, provided by Charles-River, were kept at constant temperature of 23°+/−1° C., 50+/−10% relative humidity, 12 hours light-dark cycle, fed with pellet 4RF21 (Mucedola) tap water ad libitum.
The amimals were anaesthetised with sodium Pentobarbital at the dose of 70 mg/Kg i.p.. Hearts were rapidly removed and put in a cold Krebs-Henseleit solution, before incannulation of aorta e subsequent perfusion according to Langendorff technique at 37° C. with a pressure of 100 cm water.
Perfusion medium (Krebs-Henseleit) at pH 7.4 consists in: 128 mM NaCl, 4.7 mM KCl, 1 mM MgCl2, 0.4 mM Na2HP04, 20.2 mM NaHCO3, 1.3 mM CaCl2, 5 mM glucose. The medium was constantly oxygenated with carbogen (95% O2, 5% CO2).
After a 10 min “conditioning” period, hearts were perfused in a recirculant apparatus for 20 min. with the same medium containing 0.6 mM palmitate complexed with albumine (fraction V, fatty acid free), with or without the CPT inhibitor according to the present invention. By way of example ST 1364 was used at concentrations of 1 and 5 μM. After such a period ischemia was induced by reducing perfusion hydrostatic pressure from 100 cm to 20 cm for a period of 30 min. Reperfusion was started re-establishing the starting pressure conditions (100 cm).Hearts were controlled for 20 min. the inhibitor is present also during reperfusion phase.
Lactate dehydrogenases (LDH) release was monitored in the effluent in normal oxygenation conditions, during ischemia, with a withdrawal of medium at 30′, and during reperfusion, with withdrawals at 1.5, 10, 15 and 20 minutes.
Statistical analysis was carried out with Student's “t” test for non-paired data.
The number of the cases for each group is six (n=6).

Compound: CCCCCCCCCNC(=O)NC(CC(=O)[O-])C[N+](C)(C)C (centres unmarked) [ST1251, R,S-4-trimethylammonium-3-(nonylcarbamoyl)aminobutyrate]
- IC50 [1]: 500 nM
- Glu (glucose) serum concentration, Mean (24 hours-starved rats): 76.9
- β-OHB serum concentration, Mean (24 hours-starved rats): 99.8

- IC50 (CPTI): 3200 nM
Compound: CCCCCCCCCCCNC(=O)N[C@H](CC(=O)[O-])C[N+](C)(C)C [ST1327, R-4-trimethylammonium-3-(undecylcarbamoyl)-aminobutyrate]
- Glucose (fed with high-fat diet; High Fat diet Treated, p<0.001 against high fat diet): 181.4 ± 9.63 mg/dL
- Insulin (fed with high-fat diet; High Fat diet Treated, p<0.01 against high fat diet): 0.621 ± 0.117 ng/mL
- glucose levels (in words) (fed with high-fat diet; high-fat diet): significantly decreased
- insulin levels (in words) (fed with high-fat diet; high-fat diet): significantly decreased
- Glu (glucose) serum concentration, Mean (24 hours-starved rats): 84.9
- β-OHB serum concentration, Mean (24 hours-starved rats): 93.0

Compound: CCCCCCCCOC(=O)NC(CC(=O)O)C[N+](C)(C)C.[Cl-] (centres unmarked) [ST1253, R,S-4-trimethylammonium-3-(octyloxycarbonyl)-aminobutyrate chloride]
- IC50 [1]: 900 nM
- Glu (glucose) serum concentration, Mean (24 hours-starved rats): 88.2
- β-OHB serum concentration, Mean (24 hours-starved rats): 118.8

- IC50 (CPTI): 750 nM
Compound: CCCCCCCCCCCCCCNC(=O)N[C@H](CC(=O)[O-])C[N+](C)(C)C [ST1326, R-4-trimethylammonium-3-(tetradecylcarbamoyl)amino butyrate]
- Glu (glucose) serum concentration, Mean (24 hours-starved rats): 84.2
- β-OHB serum concentration, Mean (24 hours-starved rats): 133.1

- IC50 (CPTI): 17400 nM
Compound: CCCCCCCCCCCCCCOP(=O)([O-])O[C@H](CC(=O)O)C[N+](C)(C)C [SDZ-CPI-975, reference compound]
- IC50 [1]: 3700 nM
- Glu (glucose) serum concentration, Mean (24 hours-starved rats): 87.6
- β-OHB serum concentration, Mean (24 hours-starved rats): 119.9

Compound: CCCCCCCCCOC(=O)NC(CC(=O)[O-])C[N+](C)(C)C (centres unmarked) [ST1285, R,S-4-trimethylammonium-3-(nonyloxycarbonyl)-aminobutyrate]
- IC50 [1]: 1900 nM

Compound: CCCCCCCCCCS(=O)(=O)NC(CC(=O)[O-])C[N+](C)(C)C (centres unmarked) [ST1364, R,S-4-trimethylammonium-3-(decansulfonyl)aminobutyrate]
- LDH release in perfusate ([2]; 1 μM, Basal): 275 mU/ml/min
- LDH release in perfusate ([2]; 1 μM, Ischemia 30′): 220 mU/ml/min
- LDH release in perfusate ([2]; 1 μM, Reperfusion 1′): 480 mU/ml/min
- LDH release in perfusate ([2]; 1 μM, Reperfusion 5′): 500 mU/ml/min
- LDH release in perfusate ([2]; 1 μM, Reperfusion 10′): 495 mU/ml/min
- LDH release in perfusate ([2]; 1 μM, Reperfusion 15′): 510 mU/ml/min
- LDH release in perfusate ([2]; 1 μM, Reperfusion 20′): 580 mU/ml/min
- LDH release in perfusate ([2]; 5 μM, Basal): 220 mU/ml/min
- LDH release in perfusate ([2]; 5 μM, Ischemia 30′): 200 mU/ml/min
- LDH release in perfusate ([2]; 5 μM, Reperfusion 1′): 410 mU/ml/min
- LDH release in perfusate ([2]; 5 μM, Reperfusion 5′): 380 mU/ml/min
- LDH release in perfusate ([2]; 5 μM, Reperfusion 10′): 380 mU/ml/min
- LDH release in perfusate ([2]; 5 μM, Reperfusion 15′): 320 mU/ml/min
- LDH release in perfusate ([2]; 5 μM, Reperfusion 20′): 325 mU/ml/min
- LDH release in the effluent during reperfusion (in words) ([2]; 5 μM, with respect to the controls): significantly reduced

Compound: CCCCCCCNC(=O)N[C@H](CC(=O)[O-])C[N+](C)(C)C [ST1328, R-4-trimethylammonium-3-(heptylcarbamoyl)-aminobutyrate]
- Glu (glucose) serum concentration, Mean (24 hours-starved rats): 79.5
- β-OHB serum concentration, Mean (24 hours-starved rats): 169.2
